Assay results as given in patent US11980633B2, “Method for treating cancer using a combination of DNA-damaging agents and DNA-PK inhibitors” (Vertex Pharmaceuticals Incorporated, priority 2016, dated 2024).

System: pKAP1 and pH2AX levels in MDA-MB-468 breast cancer cells
Assay: pKAP1 and pH2AX immunoblot, doxorubicin pulse (wash-out) with Compound B-2 in MDA-MB-468 cells
Assay type: cell-based, human
Settings: 1 μM Compound B-2 + 500 nM doxorubicin pulse; beginning at 1 h doxorubicin exposure, harvested at 8 h
Method: Materials and Methods. The human cancer cell lines A549 (CCL-185), DU4475 (HTB-123), MDA-MB-436 (HTB-130), and MDA-MB-468 (HTB-132) were obtained from American Type Culture Collection (ATCC; Manassas, VA). A 10 mM stock solution of Compound B-1 or Compound B-2 was prepared in DMSO and stored at −20° C. Etoposide and doxorubicin were purchased from Sigma-Aldrich (St. Louis, MO).
The A549 human lung cancer cell line was purchased from ATCC and was cultured in DMEM supplemented with 10% fetal bovine serum, 1× non-essential amino acids and 1× Penicillin/Streptomycin (complete medium). Cells were maintained at a subconfluent state by passaging every 2-3 days. Human breast cancer cells lines DU4475, MDA-MB-436, and MDA-MB-468 were purchased from ATCC and cultured in DMEM supplemented with 10% fetal bovine serum, 1× Glutamax and Penicillin/Streptomycin. Cells were maintained at a subconfluent state by passaging every 2-3 days. […]
In order to determine the effect of a pulse of doxorubicin in combination with a DNA-PK inhibitor on pKAP1 and pH2AX levels, which would more closely simulate an in vivo administration of doxorubicin, MDA-MB-468 breast cancer cells were pre-incubated with 1 μM Compound B-2 for 15 min, followed by addition of 500 nM doxorubicin. […] Cells were harvested 8 h from initial doxorubicin exposure, and analyzed for levels of pKAP1 and pH2AX by immunoblotting. […]

SMILES: [2H]c1nc(C)nc([2H])c1-c1cc(NC[C@@H](C)c2cccc3c(C(=O)NC)ccnc23)ncn1 [Compound B-2]
- pKAP1 and pH2AX levels vs doxorubicin alone: enhanced levels
